Test results from US20260248860A1, “LIVER DISEASE REGULATORY FORMULATION AND USE THEREOF” (SHANGHAI CELLIVER BIOTECHNOLOGY CO., LTD., priority 2021, published 2026).

System: ConA-stimulated mouse spleen cells
Assay: ConA-stimulated mouse spleen cell proliferation (CFSE, flow cytometry)
Type: cell-based
Conditions: final concentration 10 nM, 72 hours, read-out: inhibition rate on the proliferation of spleen cells
Experimental: A method for preparing a suspension of mouse spleen cells added with a stimulator was: 1-week-old C57BL/6 mice were sacrificed by neck dislocation, then the spleen was taken, ground with a 200-mesh sieve, and then rinsed with a lymphatic separation fluid, and the separation solution containing lymphocytes was collected, resuspended by using a RPMI-1640 complete medium containing 10% fetal bovine serum and centrifuged under a centrifugal force of 800 g at low temperature for 30 minutes; and after completion of centrifugation, the lymphocyte layer was pipetted, then resuspended with a RPMI-1640 complete medium containing 10% fetal bovine serum, and then centrifuged under a centrifugal force of 250 g for 10 minutes at low temperature. The obtained lymphocyte layer was resuspended with the RPMI-1640 complete medium containing 10% fetal bovine serum again, and added with a concanavalin A(ConA) suspension resuspended with the RPMI-1640 complete medium containing 10% fetal bovine serum as a stimulator. […]

**Q.** C=CC[C@@H]1/C=C(\C)C[C@H](C)C[C@H](OC)[C@H]2O[C@@](O)(C(=O)C(=O)N3CCCC[C@H]3C(=O)O[C@H](/C(C)=C/[C@@H]3CC[C@@H](O)[C@H](OC)C3)[C@H](C)[C@@H](O)CC1=O)[C@H](C)C[C@@H]2OC [FK506, tacrolimus] was tested. Which inhibition at 0.01 µM did it give?
**A.** The inhibition at 0.01 µM was 82%.
